Where “and” joins values, the source holds several entries; their conditions need not be identical. Equal entries are not always repeated. ± gives the expanded uncertainty stated by the source.
Conditions: for surface tension liquid-gas: Ring tensiometer; for viscosity / mass density: 101.33 kPa, Liquid; for viscosity: Capillary tube (Ostwald / Ubbelohde) method; for mass density: Vibrating tube method

With `CCC(=O)CC` [pentan-3-one] as the molecule, how does the surface tension liquid-gas (283.15 K) read?
The surface tension liquid-gas was 26.5 ± 0.4 mN/m.

And the viscosity (283.15 K)?
Its viscosity is 0.515 ± 0.004 mPa·s.

And the mass density (283.15 K)?
Its mass density is 824.27 ± 0.11 kg/m3.

What about the surface tension liquid-gas (285.15 K) of the same molecule?
The surface tension liquid-gas was 26.3 ± 0.4 mN/m.

And the viscosity (285.15 K)?
Its viscosity is 0.507 ± 0.004 mPa·s.

And the mass density (285.15 K)?
The mass density was 822.28 ± 0.11 kg/m3.

What about the surface tension liquid-gas (287.15 K) of the same molecule?
The surface tension liquid-gas was 26.1 ± 0.4 mN/m.

What about the viscosity (287.15 K) of the same molecule?
Its viscosity is 0.499 ± 0.004 mPa·s.

What about the mass density (287.15 K) of the same molecule?
The mass density was 820.3 ± 0.11 kg/m3.

What about the surface tension liquid-gas (289.15 K) of the same molecule?
Its surface tension liquid-gas is 26 ± 0.4 mN/m.

What about the viscosity (289.15 K) of the same molecule?
The viscosity was 0.492 ± 0.004 mPa·s.

And the mass density (289.15 K)?
Its mass density is 818.31 ± 0.11 kg/m3.

And the surface tension liquid-gas (291.15 K)?
The surface tension liquid-gas was 25.8 ± 0.4 mN/m.

What about the viscosity (291.15 K) of the same molecule?
The viscosity was 0.484 ± 0.003 mPa·s.

What about the mass density (291.15 K) of the same molecule?
The mass density was 816.33 ± 0.11 kg/m3.

And the viscosity (292.15 K)?
The viscosity was 0.48 ± 0.003 mPa·s.

What about the surface tension liquid-gas (293.15 K) of the same molecule?
Its surface tension liquid-gas is 25.6 ± 0.4 mN/m.

And the viscosity (293.15 K)?
Its viscosity is 0.476 ± 0.003 mPa·s.

And the mass density (293.15 K)?
The mass density was 814.34 ± 0.11 kg/m3.

And the surface tension liquid-gas (295.15 K)?
Its surface tension liquid-gas is 25.4 ± 0.4 mN/m.

What about the viscosity (295.15 K) of the same molecule?
Its viscosity is 0.468 ± 0.003 mPa·s.

And the mass density (295.15 K)?
The mass density was 812.36 ± 0.11 kg/m3.

What about the surface tension liquid-gas (297.15 K) of the same molecule?
The surface tension liquid-gas was 25.2 ± 0.4 mN/m.

And the viscosity (297.15 K)?
The viscosity was 0.46 ± 0.003 mPa·s.

And the mass density (297.15 K)?
Its mass density is 810.37 ± 0.11 kg/m3.

And the viscosity (298.15 K)?
The viscosity was 0.458 ± 0.003 mPa·s.

What about the mass density (298.15 K) of the same molecule?
Its mass density is 809.25 ± 0.11 kg/m3 and 810.86 ± 0.11 kg/m3.

And the surface tension liquid-gas (299.15 K)?
Its surface tension liquid-gas is 25 ± 0.4 mN/m.

What about the viscosity (299.15 K) of the same molecule?
Its viscosity is 0.453 ± 0.003 mPa·s.

What about the mass density (299.15 K) of the same molecule?
Its mass density is 808.39 ± 0.11 kg/m3.

And the surface tension liquid-gas (301.15 K)?
Its surface tension liquid-gas is 24.8 ± 0.4 mN/m.

What about the viscosity (301.15 K) of the same molecule?
Its viscosity is 0.445 ± 0.003 mPa·s.

What about the mass density (301.15 K) of the same molecule?
The mass density was 806.4 ± 0.11 kg/m3.

What about the surface tension liquid-gas (303.15 K) of the same molecule?
The surface tension liquid-gas was 24.6 ± 0.4 mN/m.

And the viscosity (303.15 K)?
The viscosity was 0.437 ± 0.003 mPa·s.

And the mass density (303.15 K)?
Its mass density is 804.42 ± 0.11 kg/m3.

And the surface tension liquid-gas (305.15 K)?
The surface tension liquid-gas was 24.4 ± 0.4 mN/m.

What about the viscosity (305.15 K) of the same molecule?
The viscosity was 0.429 ± 0.003 mPa·s.

What about the mass density (305.15 K) of the same molecule?
The mass density was 802.43 ± 0.12 kg/m3.

And the surface tension liquid-gas (307.15 K)?
Its surface tension liquid-gas is 24.2 ± 0.4 mN/m.

What about the viscosity (307.15 K) of the same molecule?
The viscosity was 0.421 ± 0.003 mPa·s.

And the mass density (307.15 K)?
Its mass density is 800.45 ± 0.12 kg/m3.

What about the surface tension liquid-gas (309.15 K) of the same molecule?
Its surface tension liquid-gas is 24 ± 0.4 mN/m.

What about the viscosity (309.15 K) of the same molecule?
The viscosity was 0.414 ± 0.003 mPa·s.

And the mass density (309.15 K)?
Its mass density is 798.46 ± 0.12 kg/m3.

What about the surface tension liquid-gas (311.15 K) of the same molecule?
Its surface tension liquid-gas is 23.8 ± 0.4 mN/m.

What about the viscosity (311.15 K) of the same molecule?
Its viscosity is 0.406 ± 0.003 mPa·s.

And the mass density (311.15 K)?
Its mass density is 796.48 ± 0.12 kg/m3.

What about the surface tension liquid-gas (313.15 K) of the same molecule?
Its surface tension liquid-gas is 23.6 ± 0.4 mN/m.

What about the viscosity (313.15 K) of the same molecule?
The viscosity was 0.398 ± 0.003 mPa·s.

And the mass density (313.15 K)?
The mass density was 794.49 ± 0.12 kg/m3.

What about the surface tension liquid-gas (315.15 K) of the same molecule?
The surface tension liquid-gas was 23.4 ± 0.4 mN/m.

And the viscosity (315.15 K)?
The viscosity was 0.39 ± 0.003 mPa·s.

And the mass density (315.15 K)?
The mass density was 792.51 ± 0.12 kg/m3.

And the surface tension liquid-gas (317.15 K)?
The surface tension liquid-gas was 23.3 ± 0.4 mN/m.

And the viscosity (317.15 K)?
Its viscosity is 0.382 ± 0.003 mPa·s.

And the mass density (317.15 K)?
Its mass density is 790.52 ± 0.12 kg/m3.

What about the surface tension liquid-gas (319.15 K) of the same molecule?
Its surface tension liquid-gas is 23.1 ± 0.4 mN/m.

What about the viscosity (319.15 K) of the same molecule?
Its viscosity is 0.375 ± 0.003 mPa·s.

What about the mass density (319.15 K) of the same molecule?
Its mass density is 788.54 ± 0.12 kg/m3.

What about the surface tension liquid-gas (321.15 K) of the same molecule?
Its surface tension liquid-gas is 22.9 ± 0.3 mN/m.

What about the viscosity (321.15 K) of the same molecule?
The viscosity was 0.367 ± 0.003 mPa·s.

What about the mass density (321.15 K) of the same molecule?
The mass density was 786.55 ± 0.12 kg/m3.

And the surface tension liquid-gas (323.15 K)?
The surface tension liquid-gas was 22.7 ± 0.3 mN/m.

What about the viscosity (323.15 K) of the same molecule?
The viscosity was 0.359 ± 0.003 mPa·s.

And the mass density (323.15 K)?
Its mass density is 784.57 ± 0.12 kg/m3.

And the surface tension liquid-gas (325.15 K)?
The surface tension liquid-gas was 22.5 ± 0.3 mN/m.

And the viscosity (325.15 K)?
Its viscosity is 0.351 ± 0.003 mPa·s.

What about the mass density (325.15 K) of the same molecule?
Its mass density is 782.59 ± 0.12 kg/m3.

And the surface tension liquid-gas (327.15 K)?
Its surface tension liquid-gas is 22.3 ± 0.3 mN/m.

And the viscosity (327.15 K)?
The viscosity was 0.343 ± 0.003 mPa·s.

And the mass density (327.15 K)?
The mass density was 780.6 ± 0.12 kg/m3.

What about the surface tension liquid-gas (329.15 K) of the same molecule?
The surface tension liquid-gas was 22.1 ± 0.3 mN/m.

And the viscosity (329.15 K)?
Its viscosity is 0.336 ± 0.003 mPa·s.

And the mass density (329.15 K)?
The mass density was 778.62 ± 0.12 kg/m3.

— the NIST ThermoML archive (doi:10.1016/j.jct.2007.01.008)
